Experimental data: the supplement of paper PMC5662764
± gives the standard deviation of the averaged measurements.

Columns and labels:
Assay in all cases: normalised growth rate inhibition (GR value) relative to DMSO control (GR (1 = untreated growth, 0 = cytostasis, <0 = cytotoxic)); higher = less growth inhibition
Conditions in all cases: 72 h
[1] = test system: MCF10A
Description: (§1)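 Breast cancer cell lines (BT-20, Hs 578T, MCF 10A, MCF7, MDA-MB-231, SK-BR-3) were plated in 384-well plates and treated 24 h later with drugs at six concentrations (0.04-10 µM). Viable cells were counted by Hoechst/dead-cell-stain imaging at 0 and 72 h. Counts were normalised to DMSO controls on the same plate to give the relative cell count and the growth-rate inhibition (GR) value; technical plate triplicates were averaged for each biological replicate.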

[2] = test system: SKBR3
Description: as §1

[3] = test system: BT20
Description: as §1

[4] = test system: MCF7
Description: as §1

[5] = test system: HS578T
Description: as §1

[6] = test system: MDAMB231
Description: as §1

COc1cc(OC)cc(-c2ccc3ncc4ccc(=O)n(-c5ccc(N6CCNCC6)c(C(F)(F)F)c5)c4c3c2)c1 [JW-7-24-1]
normalised growth rate inhibition ([1]; 0.04 µM): 0.986 ± 0.034 | normalised growth rate inhibition ([1]; 0.12 µM): 0.986 ± 0.044 | normalised growth rate inhibition ([1]; 0.37 µM): 0.952 ± 0.069 | normalised growth rate inhibition ([1]; 1.11 µM): 0.911 ± 0.11 | normalised growth rate inhibition ([1]; 3.33 µM): 0.84 ± 0.15 | normalised growth rate inhibition ([1]; 10 µM): 0.176 ± 0.17 | normalised growth rate inhibition ([2]; 0.04 µM): 0.615 ± 0.034 | normalised growth rate inhibition ([2]; 0.12 µM): 0.695 ± 0.042 | normalised growth rate inhibition ([2]; 0.37 µM): 0.591 ± 0.047 | normalised growth rate inhibition ([2]; 1.11 µM): 0.457 ± 0.038 | normalised growth rate inhibition ([2]; 3.33 µM): 0.273 ± 0.041 | normalised growth rate inhibition ([2]; 10 µM): -0.224 ± 0.14 | normalised growth rate inhibition ([3]; 0.04 µM): 0.797 ± 0.057 | normalised growth rate inhibition ([3]; 0.12 µM): 0.876 ± 0.078 | normalised growth rate inhibition ([3]; 0.37 µM): 0.822 ± 0.08 | normalised growth rate inhibition ([3]; 1.11 µM): 0.755 ± 0.18 | normalised growth rate inhibition ([3]; 3.33 µM): 0.61 ± 0.25 | normalised growth rate inhibition ([3]; 10 µM): -0.0316 ± 0.17 | normalised growth rate inhibition ([4]; 0.04 µM): 0.607 ± 0.09 | normalised growth rate inhibition ([4]; 0.12 µM): 0.551 ± 0.07 | normalised growth rate inhibition ([4]; 0.37 µM): 0.373 ± 0.12 | normalised growth rate inhibition ([4]; 1.11 µM): 0.236 ± 0.08 | normalised growth rate inhibition ([4]; 3.33 µM): 0.139 ± 0.078 | normalised growth rate inhibition ([4]; 10 µM): -0.135 ± 0.0036 | normalised growth rate inhibition ([5]; 0.04 µM): 0.929 ± 0.017 | normalised growth rate inhibition ([5]; 0.12 µM): 0.89 ± 0.039 | normalised growth rate inhibition ([5]; 0.37 µM): 0.765 ± 0.034 | normalised growth rate inhibition ([5]; 1.11 µM): 0.581 ± 0.029 | normalised growth rate inhibition ([5]; 3.33 µM): 0.384 ± 0.037 | normalised growth rate inhibition ([5]; 10 µM): -0.198 ± 0.14 | normalised growth rate inhibition ([6]; 0.04 µM): 0.823 ± 0.12 | normalised growth rate inhibition ([6]; 0.12 µM): 0.859 ± 0.088 | normalised growth rate inhibition ([6]; 0.37 µM): 0.754 ± 0.09 | normalised growth rate inhibition ([6]; 1.11 µM): 0.624 ± 0.12 | normalised growth rate inhibition ([6]; 3.33 µM): 0.543 ± 0.11 | normalised growth rate inhibition ([6]; 10 µM): -0.122 ± 0.17

NC1(c2ccc(-c3nc4ccn5c(=O)[nH]nc5c4cc3-c3ccccc3)cc2)CCC1 [MK-2206]
normalised growth rate inhibition ([1]; 0.04 µM): 0.99 ± 0.038 | normalised growth rate inhibition ([1]; 0.12 µM): 0.972 ± 0.036 | normalised growth rate inhibition ([1]; 0.37 µM): 0.705 ± 0.22 | normalised growth rate inhibition ([1]; 1.11 µM): 0.892 ± 0.067 | normalised growth rate inhibition ([1]; 3.33 µM): 0.833 ± 0.082 | normalised growth rate inhibition ([1]; 10 µM): 0.429 ± 0.09 | normalised growth rate inhibition ([2]; 0.04 µM): 0.761 ± 0.12 | normalised growth rate inhibition ([2]; 0.12 µM): 0.603 ± 0.084 | normalised growth rate inhibition ([2]; 0.37 µM): 0.484 ± 0.06 | normalised growth rate inhibition ([2]; 1.11 µM): 0.429 ± 0.048 | normalised growth rate inhibition ([2]; 3.33 µM): 0.283 ± 0.059 | normalised growth rate inhibition ([2]; 10 µM): -0.0652 ± 0.015 | normalised growth rate inhibition ([3]; 0.04 µM): 0.974 ± 0.087 | normalised growth rate inhibition ([3]; 0.12 µM): 0.902 ± 0.12 | normalised growth rate inhibition ([3]; 0.37 µM): 0.678 ± 0.13 | normalised growth rate inhibition ([3]; 1.11 µM): 0.583 ± 0.17 | normalised growth rate inhibition ([3]; 3.33 µM): 0.453 ± 0.2 | normalised growth rate inhibition ([3]; 10 µM): 0.08 ± 0.29 | normalised growth rate inhibition ([4]; 0.04 µM): 0.616 ± 0.12 | normalised growth rate inhibition ([4]; 0.12 µM): 0.502 ± 0.086 | normalised growth rate inhibition ([4]; 0.37 µM): 0.278 ± 0.096 | normalised growth rate inhibition ([4]; 1.11 µM): 0.291 ± 0.12 | normalised growth rate inhibition ([4]; 3.33 µM): 0.176 ± 0.093 | normalised growth rate inhibition ([4]; 10 µM): -0.104 ± 0.14 | normalised growth rate inhibition ([5]; 0.04 µM): 0.8934 ± 0.0036 | normalised growth rate inhibition ([5]; 0.12 µM): 0.803 ± 0.035 | normalised growth rate inhibition ([5]; 0.37 µM): 0.577 ± 0.21 | normalised growth rate inhibition ([5]; 1.11 µM): 0.665 ± 0.064 | normalised growth rate inhibition ([5]; 3.33 µM): 0.638 ± 0.053 | normalised growth rate inhibition ([5]; 10 µM): 0.458 ± 0.29 | normalised growth rate inhibition ([6]; 0.04 µM): 0.968 ± 0.039 | normalised growth rate inhibition ([6]; 0.12 µM): 0.904 ± 0.039 | normalised growth rate inhibition ([6]; 0.37 µM): 0.821 ± 0.05 | normalised growth rate inhibition ([6]; 1.11 µM): 0.806 ± 0.061 | normalised growth rate inhibition ([6]; 3.33 µM): 0.757 ± 0.051 | normalised growth rate inhibition ([6]; 10 µM): 0.391 ± 0.35

O=c1cc(N2CCOCC2)oc2c(-c3cccc4c3sc3ccccc34)cccc12 [NU-7441]
normalised growth rate inhibition ([1]; 0.04 µM): 1.022 ± 0.0064 | normalised growth rate inhibition ([1]; 0.12 µM): 1.001 ± 0.0035 | normalised growth rate inhibition ([1]; 0.37 µM): 0.9817 ± 0.005 | normalised growth rate inhibition ([1]; 1.11 µM): 0.957 ± 0.015 | normalised growth rate inhibition ([1]; 3.33 µM): 0.894 ± 0.034 | normalised growth rate inhibition ([1]; 10 µM): 0.357 ± 0.3 | normalised growth rate inhibition ([2]; 0.04 µM): 1.04 ± 0.036 | normalised growth rate inhibition ([2]; 0.12 µM): 0.957 ± 0.035 | normalised growth rate inhibition ([2]; 0.37 µM): 0.868 ± 0.061 | normalised growth rate inhibition ([2]; 1.11 µM): 0.714 ± 0.15 | normalised growth rate inhibition ([2]; 3.33 µM): 0.644 ± 0.082 | normalised growth rate inhibition ([2]; 10 µM): 0.199 ± 0.077 | normalised growth rate inhibition ([3]; 0.04 µM): 1.06 ± 0.025 | normalised growth rate inhibition ([3]; 0.12 µM): 1.02 ± 0.044 | normalised growth rate inhibition ([3]; 0.37 µM): 0.998 ± 0.035 | normalised growth rate inhibition ([3]; 1.11 µM): 0.958 ± 0.049 | normalised growth rate inhibition ([3]; 3.33 µM): 0.853 ± 0.098 | normalised growth rate inhibition ([3]; 10 µM): 0.263 ± 0.17 | normalised growth rate inhibition ([4]; 0.04 µM): 1 ± 0.055 | normalised growth rate inhibition ([4]; 0.12 µM): 0.955 ± 0.024 | normalised growth rate inhibition ([4]; 0.37 µM): 0.937 ± 0.053 | normalised growth rate inhibition ([4]; 1.11 µM): 0.892 ± 0.1 | normalised growth rate inhibition ([4]; 3.33 µM): 0.747 ± 0.11 | normalised growth rate inhibition ([4]; 10 µM): 0.241 ± 0.28 | normalised growth rate inhibition ([5]; 0.04 µM): 0.974 ± 0.01 | normalised growth rate inhibition ([5]; 0.12 µM): 0.9337 ± 0.0078 | normalised growth rate inhibition ([5]; 0.37 µM): 0.911 ± 0.022 | normalised growth rate inhibition ([5]; 1.11 µM): 0.789 ± 0.037 | normalised growth rate inhibition ([5]; 3.33 µM): 0.612 ± 0.02 | normalised growth rate inhibition ([5]; 10 µM): 0.144 ± 0.094 | normalised growth rate inhibition ([6]; 0.04 µM): 1.02 ± 0.043 | normalised growth rate inhibition ([6]; 0.12 µM): 0.955 ± 0.046 | normalised growth rate inhibition ([6]; 0.37 µM): 0.892 ± 0.085 | normalised growth rate inhibition ([6]; 1.11 µM): 0.843 ± 0.075 | normalised growth rate inhibition ([6]; 3.33 µM): 0.579 ± 0.11 | normalised growth rate inhibition ([6]; 10 µM): 0.147 ± 0.16

Cn1c(=O)n(-c2ccc(C(C)(C)C#N)cc2)c2c3cc(-c4cnc5ccccc5c4)ccc3ncc21 [NVP-BEZ235]
normalised growth rate inhibition ([1]; 0.04 µM): 0.393 ± 0.24 | normalised growth rate inhibition ([1]; 0.12 µM): 0.269 ± 0.12 | normalised growth rate inhibition ([1]; 0.37 µM): 0.171 ± 0.038 | normalised growth rate inhibition ([1]; 1.11 µM): 0.164 ± 0.048 | normalised growth rate inhibition ([1]; 3.33 µM): 0.168 ± 0.052 | normalised growth rate inhibition ([1]; 10 µM): 0.202 ± 0.03 | normalised growth rate inhibition ([2]; 0.04 µM): 0.0857 ± 0.065 | normalised growth rate inhibition ([2]; 0.12 µM): 0.0449 ± 0.11 | normalised growth rate inhibition ([2]; 0.37 µM): -0.0406 ± 0.12 | normalised growth rate inhibition ([2]; 1.11 µM): -0.04 ± 0.11 | normalised growth rate inhibition ([2]; 3.33 µM): -0.035 ± 0.12 | normalised growth rate inhibition ([2]; 10 µM): 0.0305 ± 0.11 | normalised growth rate inhibition ([3]; 0.04 µM): 0.254 ± 0.1 | normalised growth rate inhibition ([3]; 0.12 µM): 0.13 ± 0.12 | normalised growth rate inhibition ([3]; 0.37 µM): 0.0662 ± 0.092 | normalised growth rate inhibition ([3]; 1.11 µM): 0.061 ± 0.042 | normalised growth rate inhibition ([3]; 3.33 µM): 0.055 ± 0.039 | normalised growth rate inhibition ([3]; 10 µM): 0.103 ± 0.053 | normalised growth rate inhibition ([4]; 0.04 µM): 0.166 ± 0.15 | normalised growth rate inhibition ([4]; 0.12 µM): 0.122 ± 0.16 | normalised growth rate inhibition ([4]; 0.37 µM): 0.0651 ± 0.16 | normalised growth rate inhibition ([4]; 1.11 µM): 0.0257 ± 0.12 | normalised growth rate inhibition ([4]; 3.33 µM): 0.034 ± 0.1 | normalised growth rate inhibition ([4]; 10 µM): 0.068 ± 0.071 | normalised growth rate inhibition ([5]; 0.04 µM): 0.261 ± 0.067 | normalised growth rate inhibition ([5]; 0.12 µM): 0.197 ± 0.078 | normalised growth rate inhibition ([5]; 0.37 µM): 0.109 ± 0.087 | normalised growth rate inhibition ([5]; 1.11 µM): 0.132 ± 0.11 | normalised growth rate inhibition ([5]; 3.33 µM): 0.115 ± 0.052 | normalised growth rate inhibition ([5]; 10 µM): 0.128 ± 0.044 | normalised growth rate inhibition ([6]; 0.04 µM): 0.397 ± 0.2 | normalised growth rate inhibition ([6]; 0.12 µM): 0.301 ± 0.19 | normalised growth rate inhibition ([6]; 0.37 µM): 0.196 ± 0.2 | normalised growth rate inhibition ([6]; 1.11 µM): 0.216 ± 0.15 | normalised growth rate inhibition ([6]; 3.33 µM): 0.223 ± 0.11 | normalised growth rate inhibition ([6]; 10 µM): 0.266 ± 0.095
